In PMC6272576, “PLS-Prediction and Confirmation of Hydrojuglone Glucoside as the Antitrypanosomal Constituent of Juglans Spp” (Molecules, 2015):
Read-outs that look alike come from different tables or passages of the source.

What was measured:
Format in all cases: cell-based
[1] = system: L6 rat skeletal myoblasts; assay: cytotoxicity against mammalian cells; conditions: read-out: IC50 L6
[2] = system: Leishmania donovani strain MHOM/ET/67/L82 (axenic amastigotes); assay: in vitro growth inhibition of L. donovani; conditions: for IC50: read-out: IC50 LD
[3] = system: Trypanosoma brucei rhodesiense strain STIB 900 (bloodstream trypomastigotes); assay: microbe, parasite or virus in culture; conditions: for IC50: read-out: IC50 TB
[4] = system: Trypanosoma cruzi strain Tulahuen C2C4 (intracellular amastigotes in L6 cells); assay: in vitro growth inhibition of T. cruzi; conditions: for SI TC: ratio of cytotoxic (L6) over antiparasitic IC50
[5] = Rattus norvegicus, Myoblast, cytotoxicity, pure compound
[6] = Leishmania donovani, pure compound
[7] = Trypanosoma brucei, pure compound
[8] = ratio of cytotoxic (L6) over antiparasitic IC50
[9] = Trypanosoma cruzi, TULAHUEN, L6, pure compound, read-out: IC50 TC
[10] = pure compound, read-out: IC50 TC

| Structure (SMILES) | IC50 [1, 5] [µM] | IC50 [2, 6] [µM] | IC50 [3, 7] [µM] | SI TB [3, 8] | IC50 [4, 9] [µM] | SI TC [4] | SI LD [2, 8] | also measured |
| --- | --- | --- | --- | --- | --- | --- | --- | --- |
| OC[C@H]1O[C@@H](Oc2ccc(O)cc2)[C@H](O)[C@@H](O)[C@@H]1O [Arbutin (1,4-benzoquinone glucoside), Arbutin] | > 367 | > 367 | 236 | >1.5 | 244 | >1.5 | – | – |
| O=C1C=CC(=O)c2ccccc21 [1,4-Naphthoquinone] | 6.39 | 2.38 | 0.58 | 11.1 | 9.24 | 0.7 | 2.7 | – |
| CC1=CC(=O)c2c(O)cccc2C1=O [Plumbagin] | 2.87 | 0.88 | 0.49 | 5.9 | 3.59 | 0.8 | 3.3 | – |
| O=C1C(O)=C(C2=C(O)C(=O)c3ccccc3C2=O)C(=O)c2ccccc21 [2,2′-bis-(3-Hydroxy-1,4-naphthoquinone)] | – | – | – | 0.9 | – | 0.3 | 8.4 | IC50 ([1]; cytotoxicity, pure compound): 61.6 µM; IC50 ([2]; pure compound): 7.34 µM; IC50 ([3]; pure compound): 68.8 µM; IC50 [4, 10]: 237 µM |
| O=C1C=CC(=O)c2c(O)cccc21 [Juglone] | 21 | – | – | – | > 100 | – | – | SI LD [2]: 10.4; IC50 ([2]; Leishmania donovani): 2.02 µM; SI TB [3]: 13.0; IC50 ([3]; Trypanosoma brucei): 1.62 µM |
| Nc1nc(N)nc(Nc2ccc([As]3SCC(CO)S3)cc2)n1 (stereo not drawn) [Melarsoprol] | – | – | 0.005 | – | – | – | – | – |
| OC[C@H]1O[C@@H](Oc2ccc(O)c3cccc(O)c23)[C@H](O)[C@@H](O)[C@@H]1O [Compound 1, 4-O-β-D-Glucopyranosyl-1,4,5-trihydroxynaphthalene] | 122 | 16.7 | 6.1 | – | 169 | 0.7 | 7.3 | IC50 ([1]; cytotoxicity, pure compound, listed as Hydrojuglone glucoside (1)): 122 µM; IC50 ([2]; pure compound, listed as Hydrojuglone glucoside (1)): 16.6 µM; SI LD ([2]; ratio of cytotoxic (L6) over antiparasitic IC50, listed as Hydrojuglone glucoside (1)): 7.4; SI TB [3]: 20.0; IC50 ([3]; Trypanosoma brucei): 6.12 µM |
| CC(C)=CCC1=C(O)C(=O)c2ccccc2C1=O [Lapachol] | 26.6 | 3.33 | 16.4 | 1.6 | 17.6 | 1.5 | 8.0 | – |
| O=C1C=C(O)C(=O)c2ccccc21 [Lawson] | – | – | – | 0.2 | – | 0.6 | 10.3 | IC50 ([1]; cytotoxicity, pure compound): 20.6 µM; IC50 ([2]; pure compound): 1.99 µM; IC50 ([3]; pure compound): 101 µM; IC50 [4, 10]: 37.4 µM |
| O=C(Cn1ccnc1[N+](=O)[O-])NCc1ccccc1 [Benznidazole] | – | – | – | – | 2.33 | – | – | – |
| CCCCCCCCCCCCCCCCOP(=O)([O-])OCC[N+](C)(C)C [Miltefosine] | – | 0.18 | – | – | – | – | – | – |
| CC(C)=CC[C@@H](O)C1=CC(=O)c2c(O)ccc(O)c2C1=O [Shikonin] | – | – | 0.03 | 2.1 | – | 0.2 | 0.5 | IC50 ([1]; Rattus norvegicus, Myoblast): 0.06 µM; IC50 ([2]; Leishmania donovani): 0.12 µM; IC50 ([4]; Trypanosoma cruzi, TULAHUEN, L6, read-out: IC50 TC): 0.27 µM |
| COc1cc([C@@H]2c3cc4c(cc3[C@H](O)[C@H]3COC(=O)[C@H]23)OCO4)cc(OC)c1OC [Podophyllotoxin] | 0.014 | – | – | – | – | – | – | – |
